Legend:
[1] = molecular target: T1, SOS1 (Homo sapiens, UniProt Q07889); experiment: SOS-catalyzed nucleotide exchange assay (HTRF, SOS1-mediated GTP loading of KRAS G12D); type: biochemical; details: GST-KRAS G12D, HIS-SOS1cat, compound 128 pM to 10 µM; read-out: SOS-catalyzed nucleotide exchange assay
T1 construct: HIS-SOS1cat (160 nM; Cytoskeleton, US); His (N); purchased Cytoskeleton
T1 sequence (Q07889 564-1049 limits assumed): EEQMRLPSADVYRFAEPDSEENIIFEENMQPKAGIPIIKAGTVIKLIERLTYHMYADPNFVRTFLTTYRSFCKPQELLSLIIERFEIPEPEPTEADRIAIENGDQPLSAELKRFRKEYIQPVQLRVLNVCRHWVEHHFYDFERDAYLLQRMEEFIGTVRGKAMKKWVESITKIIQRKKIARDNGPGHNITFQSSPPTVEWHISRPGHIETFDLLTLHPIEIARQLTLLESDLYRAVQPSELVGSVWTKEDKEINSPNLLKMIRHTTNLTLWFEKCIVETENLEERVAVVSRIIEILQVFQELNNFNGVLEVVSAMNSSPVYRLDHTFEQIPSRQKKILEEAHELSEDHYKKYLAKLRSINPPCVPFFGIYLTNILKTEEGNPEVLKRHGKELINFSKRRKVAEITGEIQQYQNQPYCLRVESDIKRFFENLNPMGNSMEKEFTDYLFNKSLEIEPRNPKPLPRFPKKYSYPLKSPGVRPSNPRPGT

[2] = molecular target: T2, KRAS G12C::SOS1 (Homo sapiens, UniProt Q07889); experiment: KRAS G12C::SOS1 protein-protein interaction (PPI) inhibition assay (HTRF); type: binding; details: 8 concentrations from 3 µM, three replicates; read-out: KRAS G12C::SOS1 PPI
T2 construct: purchased CISBIO 64KRASG12PEH
T2 sequence (Q07889 1-1333): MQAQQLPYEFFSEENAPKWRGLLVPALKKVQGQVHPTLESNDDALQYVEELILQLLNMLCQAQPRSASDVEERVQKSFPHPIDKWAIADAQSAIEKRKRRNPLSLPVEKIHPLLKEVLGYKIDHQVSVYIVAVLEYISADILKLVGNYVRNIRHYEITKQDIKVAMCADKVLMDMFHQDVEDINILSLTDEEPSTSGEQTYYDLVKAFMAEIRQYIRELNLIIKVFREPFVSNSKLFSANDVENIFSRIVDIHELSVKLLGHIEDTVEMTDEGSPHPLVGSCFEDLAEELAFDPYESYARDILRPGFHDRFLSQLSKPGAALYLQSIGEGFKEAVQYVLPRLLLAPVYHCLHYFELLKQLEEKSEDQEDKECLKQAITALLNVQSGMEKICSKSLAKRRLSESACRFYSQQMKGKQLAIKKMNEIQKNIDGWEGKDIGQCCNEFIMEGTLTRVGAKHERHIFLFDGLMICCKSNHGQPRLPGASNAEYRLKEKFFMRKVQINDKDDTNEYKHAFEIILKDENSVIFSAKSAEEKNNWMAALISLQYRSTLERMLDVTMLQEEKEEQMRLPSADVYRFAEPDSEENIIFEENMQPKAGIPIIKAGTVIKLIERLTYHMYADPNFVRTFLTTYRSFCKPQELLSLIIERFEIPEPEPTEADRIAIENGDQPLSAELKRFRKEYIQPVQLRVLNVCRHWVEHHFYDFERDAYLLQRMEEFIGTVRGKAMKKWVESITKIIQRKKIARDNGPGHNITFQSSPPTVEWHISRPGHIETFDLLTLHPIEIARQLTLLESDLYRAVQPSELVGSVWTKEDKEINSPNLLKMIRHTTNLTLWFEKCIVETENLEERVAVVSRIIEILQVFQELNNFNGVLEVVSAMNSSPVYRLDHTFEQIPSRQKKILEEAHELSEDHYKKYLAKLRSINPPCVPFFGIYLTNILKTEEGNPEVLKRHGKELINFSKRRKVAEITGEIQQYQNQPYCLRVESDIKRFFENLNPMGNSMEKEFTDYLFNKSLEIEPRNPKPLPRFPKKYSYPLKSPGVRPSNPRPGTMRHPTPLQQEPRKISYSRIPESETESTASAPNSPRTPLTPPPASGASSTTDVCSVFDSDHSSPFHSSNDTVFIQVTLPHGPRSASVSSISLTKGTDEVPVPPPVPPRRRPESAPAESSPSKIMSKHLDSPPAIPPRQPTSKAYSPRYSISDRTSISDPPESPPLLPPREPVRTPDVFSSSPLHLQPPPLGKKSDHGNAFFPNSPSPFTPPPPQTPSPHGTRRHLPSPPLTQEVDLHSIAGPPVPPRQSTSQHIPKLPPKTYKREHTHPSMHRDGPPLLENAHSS
Outline: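 Compounds, at eight 3-fold dilutions from 3 µM, were mixed with GTP-loaded Tag1-KRAS G12C, Tag2-SOS1 and a terbium-cryptate donor plus XL665 acceptor antibody pair. After 2 h at room temperature, time-resolved FRET reported the KRAS–SOS1 interaction.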

[3] = test system: lung cancer cell line NCI-H358 having the KRAS G12C variant; experiment: Cancer cell growth inhibition, 3D spheroids (CellTiter-Glo 3D); type: cell-based; details: Homo sapiens, NCI-H358, 120 h; 3D spheroids, 0.002-10 µM, 5 days; read-out: H358 cell viability
Outline: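 NCI-H358 (KRAS G12C) spheroids lysed with CellTiter-Glo 3D for 30 min with shaking after 10 min at room temperature. Growth in compound-treated wells expressed relative to untreated wells set to 100%.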

`C[C@@H](NC(=O)c1ccc(=O)n(-c2cnnc(-c3cnnn3C)c2)n1)c1cccc(C(F)(F)CO)c1F` [Example 1-37, N-{(1R)-1-[3-(1,1-difluoro-2-hydroxyethyl)-2-fluoro-phenyl]ethyl}-6'-(1-methyl-1H-1,2,3-triazol-5-yl)-6-oxo-6H-[1,4'-bipyridazine]-1,6-dihydro-3-carboxamide] gave an IC50 [1] of 50 to 150 nM, an IC50 [2] of 50 to 150 nM and an IC50 [3] greater than 3000 nM.
For `Cc1cc(C(=O)N[C@H](C)c2cc(N)cc(C(F)F)c2)nn(-c2cncc(-c3cnnn3C)c2)c1=O` [Example 2-7, N-[(1R)-1-[3-amino-5-(difluoromethyl)phenyl]ethyl]-5-methyl-1-[5-(3-methyltriazol-4-yl)-3-pyridyl]-6-oxo-pyridazine-3-carboxamide], the IC50 [1] was less than 50 nM, the IC50 [2] was less than 50 nM and the IC50 [3] was greater than 3000 nM.
Work on `C[C@@H](NC(=O)c1cc(C2CC2)c(=O)n(-c2cncc(-c3cnnn3C)c2)c1)c1cccc(C(F)(F)F)c1F` [Example 7, (R)-3-cyclopropyl-N-(1-(2-fluoro-3-(trifluoromethyl)phenyl)ethyl)-5'-(1-methyl-1H-1,2,3-triazol-5-yl)-2-oxo-2H-[1,3'-bipyridine]-5-carboxamide] yielded an IC50 [1] of less than 50 nM, an IC50 [2] of less than 50 nM and an IC50 [3] of less than 1000 nM.
For `C[C@@H](NC(=O)c1ccc(=O)n(-c2cncc(-c3cnnn3C)c2)c1)c1cccc(C(F)(F)F)c1F` [Example 1-24, N-[(1R)-1-[2-fluoro-3-(trifluoromethyl)phenyl]ethyl]-1-[5-(3-methyltriazol-4-yl)-3-pyridyl]-6-oxo-pyridine-3-carboxamide], the IC50 [1] was less than 50 nM, the IC50 [2] was less than 50 nM and the IC50 [3] was less than 1000 nM.
In the case of `[2H]C([2H])([2H])c1cc(C(=O)N[C@H](C)c2cccc(C(F)F)c2F)nn(-c2cncc(-c3cnnn3C)c2)c1=O` [Example 7-2, N-{(R)-1-[3-(difluoromethyl)-2-fluorophenyl]ethyl}-5-[methyl-trideuterio]-1-[5-(1-methyl-1H-1,2,3-triazol-5-yl)-3-pyridyl]-6-oxo-1,6-dihydropyridazine-3-carboxamide], the IC50 [1] is reported as 50 to 150 nM, the IC50 [2] is reported as less than 50 nM and the IC50 [3] is reported as less than 1000 nM.
`[2H]C([2H])([2H])n1nncc1-c1cncc(-n2nc(C(=O)N[C@H](C)c3cc(N)cc(C(F)(F)F)c3)ccc2=O)c1` [Example 1-58] was tested, and the IC50 [1] was less than 50 nM, the IC50 [2] was less than 50 nM and the IC50 [3] was less than 1000 nM.
`CCn1nncc1-c1cncc(-n2nc(C(=O)N[C@H](C)c3cccc(C(F)(F)F)c3F)cc(C)c2=O)c1` [Example 1-25, 1-[5-(3-ethyltriazol-4-yl)-3-pyridyl]-N-[(1R)-1-[2-fluoro-3-(trifluoromethyl)phenyl]ethyl]-5-methyl-6-oxo-pyridazine-3-carboxamide] showed an IC50 [1] of less than 50 nM, an IC50 [2] of 50 to 150 nM and an IC50 [3] of less than 1000 nM.
For `Cc1c([C@@H](C)NC(=O)c2ccc(=O)n(-c3cncc(-c4ccnn4C)c3)n2)cc(N)cc1C(F)(F)F` [Example 2-4, N-[(1R)-1-[5-amino-2-methyl-3-(trifluoromethyl)phenyl]ethyl]-1-[5-(2-methylpyrazol-3-yl)-3-pyridyl]-6-oxo-pyridazine-3-carboxamide], the IC50 [1] was less than 50 nM, the IC50 [2] was less than 50 nM and the IC50 [3] was less than 1000 nM.
`Cc1cc(C(=O)N[C@H](C)c2cccc(C(F)(F)CO)c2F)nn(-c2cncc(-c3cnnn3C)c2)c1=O` [Example 1-23, N-[(1R)-1-[3-(1,1-difluoro-2-hydroxy-ethyl)-2-fluoro-phenyl]ethyl]-5-methyl-1-[5-(3-methyltriazol-4-yl)-3-pyridyl]-6-oxo-pyridazine-3-carboxamide] was tested, and the IC50 [1] was less than 50 nM, the IC50 [2] was less than 50 nM and the IC50 [3] was less than 1000 nM.
Molecule `C[C@@H](NC(=O)c1cc(C2=CCCCC2)c(=O)n(-c2cncc(-c3cnnn3C)c2)n1)c1cccc(C(F)(F)F)c1F` [Example 1-64, N-{(R)-1-[2-fluoro-3-(trifluoromethyl)phenyl]ethyl}-5-(1-cyclohexen-1-yl)-1-[5-(1-methyl-1H-1,2,3-triazol-5-yl)-3-pyridyl]-6-oxo-1,6-dihydropyridazine-3-carboxamide] has an IC50 [1] greater than 150 nM, an IC50 [2] greater than 150 nM and an IC50 [3] of 1000 to 3000 nM.
